Measured values: US7544373B2, “Minocycline oral dosage forms for the treatment of acne” (Medicis Pharmaceutical Corporation, priority 2007, dated 2009)

Test: Repeat-dose primate toxicology studies
Format: in vivo

CN(C)c1ccc(O)c2c1C[C@H]1C[C@H]3[C@H](N(C)C)C(O)=C(C(N)=O)C(=O)[C@@]3(O)C(O)=C1C2=O [minocycline]
lowest exposure which yields adverse effects (4 weeks): ~15 µg/mL
lowest exposure which yields adverse effects (13 weeks): ~7 µg/mL
